From US20250169499A1, “IMAZAMOX AND GLYPHOSATE FOR CONTROLLING DIGITARIA INSULARIS” (BASF AGROCHEMICAL PRODUCTS B.V., priority 2021, published 2025)

Assays:
Assay type in all cases: in vivo, Digitaria insularis
Details in all cases: DASH 0.5% v/v
[1] = system: D. insularis (perennial); test: Field trial, post-emergence application A (desiccation 30 days before soybean sowing), visual weed control rated 14 DAA-A
Description: (§1) A soil sample from the experimental site was analyzed and provided pH H2O 5.3; 0 cmolc H+Al^+3/dm^3; 4.2 cmolc/dm^3 Ca^+2; 1.6 cmolc/dm^3 Mg^+2; 242 mg/dm^3 K^+; 42.3 mg/dm^3 P; 18% sand; 15% silt and 67% clay.
(§2) For all herbicide applications, the applications were made using a backpack sprayer that was pressurized by CO2 with six flat fan nozzles XR110.015 at 3 bar, which caused the application volume to reach 150 L ha^−1.
(§3) Glyphosate was used as a commercially available soluble concentrate (SL)-formulation containing glyphosate as its potassium salt (480 g/l of glyphosate in its acid form), which is commercially available under the trade name Roundup Transorb R.
(§4) Imazamox was used as a commercially available water dispersible granule (WG)-formulation containing 700 g/Kg of imazamox, which is commercially available under the trade name Raptor® 70 DG.
(§5) In table 1, all details related to mode of application of herbicides, and climatic conditions during herbicide application are listed.
Crop sowing (in case of A and B; in case of A*, no crops were sown) was carried out under a no-tillage system, by distributing 16 seeds per meter of a M6410® soybean variety in all treatments with Raptor® 70 DG and also 16 seeds m^−1 of a second soybean cultivar (BMX Potência RR) in the remaining treatments. Immediately before sowing, the seeds of both cultivars were treated with a formulation of fipronil, pyraclostrobin and thiophanate methyl (Standak® Top; 200 mL per ha). Crop fertilization was performed with 300 kg ha^−1 of a commercial N-P-K formulation (02-20-18). […]
After the first application (application “A” and “A*”), two evaluations were performed on the effect of treatments on the weeds emerged at that application. For those evaluations, the infestation of the untreated control is used as reference. These assessments for the damage caused by the herbicides A and B, and the binary herbicide combination thereof were carried out at 14 days after application “A” (14 DAA-A) or 35 days after application “A*” (35-DAA-A*) using a scale from 0 to 100%, compared to the untreated control plants. Here, 0 means no damage and 100 means complete destruction of the plants.
The value E, which is to be expected if the activity of the individual compounds is just additive, was calculated using the method of S. R. Colby (1967) “Calculating synergistic and antagonistic responses of herbicide combinations”, Weeds 15, p. 22 ff. For two component mixtures the value E was calculated by the following formula […]
(§6) If the value observed in this manner is higher than the value E calculated according to Colby, a synergistic effect is present. […]

[2] = system: D. insularis (flowering); test: Field trial, post-emergence application B (desiccation 0 days before soybean sowing), visual weed control rated 28 DAA-B
Description: as §1, §2, §3, §4, §5
Crop sowing (in case of A and B; in case of A*, no crops were sown) was carried out under a no-tillage system, by distributing 16 seeds per meter of a M6410® soybean variety in all treatments with Raptor® 70 DG and also 16 seeds m^−1 of a second soybean cultivar (BMX Potência RR) in the remaining treatments. Immediately before sowing, the seeds of both cultivars were treated with a formulation of fipronil, pyraclostrobin and thiophanate methyl (Standak® Top; 200 mL per ha). Crop fertilization was performed with 300 kg ha^−1 of a commercial N-P-K formulation (02-20-18).
For the post-emergence treatment, the test plants were first grown to a height of 3 to 20 cm, depending on the plant habit, and only then treated. Here, the herbicidal compositions were suspended or emulsified in water as distribution medium and sprayed using finely distributing nozzles.
Herbicide B was formulated as 10% by weight strength suspension concentrate and introduced to the spray liquor with the amount of solvent system used for applying the active compound. […]
(§7) The value E, which is to be expected if the activity of the individual compounds is just additive, was calculated using the method of S. R. Colby (1967) “Calculating synergistic and antagonistic responses of herbicide combinations”, Weeds 15, p. […] For two component mixtures the value E was calculated by the following formula […]
as §6
(§8) The results are summarized in the following tables 2, 3 and 4 that show the herbicidal activity of the individual actives and of their combinations in post-emergence application assessed 14, 28 and 35 day after treatment (DAT), respectively.

[3] = system: D. insularis (early stage - 2 to 6 leaves); test: Field trial, post-emergence application A* (no soybean sowing), visual weed control rated 35 DAA-A*
Description: as §1, §2
Glyphosate was used as a commercially available soluble concentrate (SL)-formulation containing glyphosate as its potassium salt (480 g/l of glyphosate in its acid form), which is commercially available under the trade name Roundup Transorb R. […]
as §7, §6, §8

Structure (SMILES) | Control (%) of D. insularis (perennial) ([1]; dose 1080 g ai/ha, scale 0-100% vs untreated) [%] | Control (%) of D. insularis (flowering) ([2]; dose 1440 g ai/ha) [%] | Control (%) of D. insularis (early stage - 2 to 6 leaves) ([3]; dose 1080 g ai/ha) [%] | Control (%) of D. insularis (perennial) ([1]; dose 49 g ai/ha) [%] | Control (%) of D. insularis (perennial) ([1]; dose 70 g ai/ha) [%] | Control (%) of D. insularis (perennial) ([1]; dose 91 g ai/ha) [%] | Control (%) of D. insularis (flowering) ([2]; dose 70 g ai/ha) [%] | Control (%) of D. insularis (flowering) ([2]; dose 105 g ai/ha) [%] | Control (%) of D. insularis (flowering) ([2]; dose 140 g ai/ha) [%] | Control (%) of D. insularis (early stage - 2 to 6 leaves) ([3]; dose 105 g ai/ha) [%]
O=C(O)CNCP(=O)(O)O [Herbicide A, N-(phosphonomethyl)glycine] | 5 | 45 | 5 | – | – | – | – | – | – | –
COCc1cnc(C2=NC(C)(C(C)C)C(=O)N2)c(C(=O)O)c1 (stereo not shown) [Herbicide B, 2-(4-isopropyl-4-methyl-5-oxo-2-imidazolin-2-yl)-5-(methoxymethyl)nicotinic acid] | – | – | – | 13 | 20 | 20 | 40 | 40 | 50 | 13
